According to ChEMBL document CHEMBL4346687, “Design, synthesis and biological evaluation of novel uracil derivatives bearing 1, 2, 3-triazole moiety as thymidylate synthase (TS) inhibitors and as potential antitumor drugs” (Eur J Med Chem, 2019):

How the values were obtained:
OVCAR-3 = experiment: cells; conditions: Homo sapiens, OVCAR-3, 24 h
Description: Antiproliferative activity against human OVCAR3 cells assessed as reduction in cell viability after 24 hrs by MTT assay

[1] = Cytotoxicity against human IOSE-80 cells assessed as reduction in cell viability after 24 hrs by MTT assay; format: cell-based; conditions: for CC50 at 24 h: IOSE-80 cells; for CC50: 24 h
HepG2 = experiment: cells; conditions: Homo sapiens, HepG2, 24 h
Description: Antiproliferative activity against human HepG2 cells assessed as reduction in cell viability after 24 hrs by MTT assay

SGC-7901 = experiment: cells; conditions: Homo sapiens, SGC-7901, 24 h
Description: Antiproliferative activity against human SGC7901 cells assessed as reduction in cell viability after 24 hrs by MTT assay

[2] = (§1) Cytotoxicity against human L02 cells assessed as reduction in cell viability after 24 hrs by MTT assay; format: cell-based; conditions: L02 cells
A549 = experiment: cells; conditions: Homo sapiens, A549, 24 h
Description: Antiproliferative activity against human A549 cells assessed as reduction in cell viability after 24 hrs by MTT assay

[3] = (§2) Cytotoxicity against human GES-1 cells assessed as reduction in cell viability after 24 hrs by MTT assay; format: cell-based, GES1; conditions: GES-1 cells
[4] = Cytotoxicity against human HPAEpic cells assessed as reduction in cell viability after 24 hrs by MTT assay; format: cell-based; conditions: for CC50 at 24 h: HPAEpic cells; for CC50: 24 h
L02 = experiment: as §1; format: cell-based; conditions: l02, 24 h
GES1 = experiment: as §2; format: cell-based; conditions: ges1, 24 h

| Compound | IC50 (OVCAR-3) [µM] | CC50 at 24 h [1] [µM] | IC50 (HepG2) [µM] | IC50 (SGC-7901) [µM] | CC50 at 24 h [2] [µM] | IC50 (A549) [µM] | CC50 at 24 h [3] [µM] | CC50 at 24 h [4] [µM] | CC50 [1] | CC50 (L02) | CC50 (GES1) | CC50 [4] |
| --- | --- | --- | --- | --- | --- | --- | --- | --- | --- | --- | --- | --- |
| O=c1[nH]cc(S(=O)(=O)Nc2ccc(-c3cn(-c4ccccc4F)nn3)cc2)c(=O)[nH]1 | 8.03 | > 100 | > 20 | 7.27 | > 100 | 5.96 | > 100 | 32.6 | – | – | – | – |
| Cc1ccccc1-n1cc(-c2ccc(NS(=O)(=O)c3c[nH]c(=O)[nH]c3=O)cc2)nn1 | 7.31 | – | 14.5 | 13.6 | – | 3.13 | – | – | Non-Toxic | Non-Toxic | Non-Toxic | Non-Toxic |
| O=c1[nH]cc(S(=O)(=O)Nc2ccc(-c3cn(-c4cccc(Cl)c4)nn3)cc2)c(=O)[nH]1 | 2.75 | 14.3 | 2.02 | 2.46 | 19 | 2.31 | 7.57 | 13.8 | – | – | – | – |
| O=c1[nH]cc(S(=O)(=O)Nc2ccccc2-c2cn(-c3ccccc3Cl)nn2)c(=O)[nH]1 | 3.17 | 11.2 | 2.24 | 6.52 | 22.8 | 2.74 | 20.8 | 17.7 | – | – | – | – |
| O=c1[nH]cc(S(=O)(=O)Nc2ccccc2-c2cn(-c3ccc(F)cc3)nn2)c(=O)[nH]1 | > 20 | – | > 20 | > 20 | – | 6.39 | – | – | Non-Toxic | Non-Toxic | Non-Toxic | Non-Toxic |
| O=c1[nH]cc(S(=O)(=O)Nc2ccccc2-c2cn(-c3cccc(Cl)c3)nn2)c(=O)[nH]1 | 2.18 | > 100 | 2.46 | 2.27 | > 100 | 2.34 | > 100 | > 100 | – | – | – | – |
| O=c1[nH]cc(S(=O)(=O)Nc2cccc(-c3cn(-c4ccc(Cl)cc4)nn3)c2)c(=O)[nH]1 | 2.04 | 6.26 | 1.96 | 2.16 | 9.86 | 1.73 | 11.3 | 14 | – | – | – | – |
| O=c1[nH]cc(S(=O)(=O)Nc2cccc(-c3cn(-c4ccccc4F)nn3)c2)c(=O)[nH]1 | 12.5 | – | 13.9 | 16 | – | > 20 | – | – | Non-Toxic | Non-Toxic | Non-Toxic | Non-Toxic |
| O=c1[nH]cc(S(=O)(=O)Nc2ccc(-c3cn(-c4cccc(F)c4)nn3)cc2)c(=O)[nH]1 | > 20 | – | > 20 | > 20 | – | 9.98 | – | – | Non-Toxic | Non-Toxic | Non-Toxic | Non-Toxic |
| Cc1ccc(-n2cc(-c3cccc(NS(=O)(=O)c4c[nH]c(=O)[nH]c4=O)c3)nn2)cc1 | 3.54 | 12.8 | > 20 | 9.43 | 23.1 | 3.63 | 15.8 | 10.6 | – | – | – | – |
| O=c1[nH]cc(S(=O)(=O)Nc2ccc(-c3cn(-c4ccc(F)cc4)nn3)cc2)c(=O)[nH]1 | > 20 | – | > 20 | > 20 | – | 9.72 | > 100 | > 100 | Non-Toxic | Non-Toxic | – | – |
| Cc1ccccc1-n1cc(-c2cccc(NS(=O)(=O)c3c[nH]c(=O)[nH]c3=O)c2)nn1 | 6.23 | 36.4 | 9.57 | 9.23 | 15.3 | 5.47 | 21.5 | 10.2 | – | – | – | – |
| Cc1ccc(-n2cc(-c3ccccc3NS(=O)(=O)c3c[nH]c(=O)[nH]c3=O)nn2)cc1 | 2.19 | 33.4 | 8.35 | 6.39 | > 100 | 2.91 | 32.4 | 7.03 | – | – | – | – |
| O=c1[nH]cc(S(=O)(=O)Nc2ccccc2-c2cn(-c3ccccc3F)nn2)c(=O)[nH]1 | 15.3 | > 100 | 12.5 | 10.8 | > 100 | 7.37 | > 100 | > 100 | – | – | – | – |
| O=c1[nH]cc(S(=O)(=O)Nc2ccc(-c3cn(-c4ccc(Cl)cc4)nn3)cc2)c(=O)[nH]1 | 2.16 | 17.7 | 1.98 | 1.83 | 42.9 | 1.21 | 23.3 | 14.8 | – | – | – | – |
| O=c1[nH]cc(S(=O)(=O)Nc2ccccc2-c2cn(-c3ccccc3)nn2)c(=O)[nH]1 | 6.65 | 10.5 | 6.16 | 11.8 | 10.6 | 6.79 | > 100 | 14.3 | – | – | – | – |
| O=c1[nH]cc(S(=O)(=O)Nc2cccc(-c3cn(-c4ccccc4)nn3)c2)c(=O)[nH]1 | > 20 | – | 11.2 | 17.2 | > 100 | 12.7 | 22.5 | 41.5 | Non-Toxic | – | – | – |
| O=c1[nH]cc(S(=O)(=O)Nc2ccc(-c3cn(-c4ccccc4Cl)nn3)cc2)c(=O)[nH]1 | 4.27 | 22.2 | 2.23 | 2.68 | 19.3 | 2.81 | 16.4 | 17 | – | – | – | – |
| O=c1[nH]cc(S(=O)(=O)Nc2cccc(-c3cn(-c4ccccc4Cl)nn3)c2)c(=O)[nH]1 | 5.37 | 17.9 | 4.03 | 3.01 | 11.5 | 2.73 | 14 | 12.3 | – | – | – | – |
| O=c1[nH]cc(S(=O)(=O)Nc2cccc(-c3cn(-c4cccc(Cl)c4)nn3)c2)c(=O)[nH]1 | 3.41 | 18.9 | 4.2 | 3.95 | 8.33 | 2.43 | 26.2 | 10.2 | – | – | – | – |
| Cc1cccc(-n2cc(-c3ccc(NS(=O)(=O)c4c[nH]c(=O)[nH]c4=O)cc3)nn2)c1 | 7.49 | 29.3 | > 20 | 17.4 | 39 | 6.96 | 28.3 | 31.3 | – | – | – | – |
| Cc1cccc(-n2cc(-c3ccccc3NS(=O)(=O)c3c[nH]c(=O)[nH]c3=O)nn2)c1 | 3.15 | 15.8 | 3.62 | 3.51 | 21.9 | 1.87 | 23.7 | 12.3 | – | – | – | – |
| Cc1cccc(-n2cc(-c3cccc(NS(=O)(=O)c4c[nH]c(=O)[nH]c4=O)c3)nn2)c1 | 4.08 | 23.4 | 7.05 | 9.1 | 28.3 | 3.55 | 18.5 | 23.7 | – | – | – | – |
| Cc1ccccc1-n1cc(-c2ccccc2NS(=O)(=O)c2c[nH]c(=O)[nH]c2=O)nn1 | 6.55 | 17.4 | 13.9 | 9.57 | 56.6 | 3.21 | 19.9 | 9.67 | – | – | – | – |
